Data: PMC9298916, “The Discovery and Structure‐Activity Evaluation of (+)‐Floyocidin B and Synthetic Analogs” (Chemmedchem, 2021)
In brackets after ≈: the same amount, converted by molar mass. Where two headings read alike, the source gives them in different places.

How the values were obtained:
M. tuberculosis H37Rv = experiment: Growth inhibition, M. tuberculosis H37Rv (Middlebrook 7H9, CellTiter-Blue); type: cell-based; details: M. tuberculosis H37Rv (Mtb), 6 days
E. coli ATCC25922 = experiment: Micro-broth dilution growth inhibition, E. coli (CAMH); type: cell-based; details: Escherichia coli, 18 h
E. coli ATCC25922 MHC = experiment: Micro-broth dilution growth inhibition, E. coli in CAMH with 44 mM sodium bicarbonate (MHC); type: cell-based; details: Escherichia coli, ATCC25922, 18 h, E. coli ATCC25922 MHC (CAMH + 44 mM sodium bicarbonate), read-out: MIC
P. aeruginosa ATCC27853 = experiment: Micro-broth dilution growth inhibition, P. aeruginosa; type: cell-based; details: Pseudomonas aeruginosa, 18 h
S. aureus ATCC25923 = experiment: Micro-broth dilution growth inhibition, S. aureus; type: cell-based; details: Staphylococcus aureus, 18 h
[1] = tested on: M. catarrhalis ATCC25238I; experiment: Micro-broth dilution growth inhibition, M. catarrhalis; type: cell-based
C. albicans FH2173 = experiment: Micro-broth dilution growth inhibition, C. albicans (ATP quantification); type: cell-based; details: Candida albicans, FH2173, 48 h, read-out: MIC
physchem = type: physicochemical; details: for chromatographic logD: pH 7.4, Log D pH 7.4
Method: 2.4. Assay descriptions for the profiling of all four stereoisomers of (+)-floyocidin B and (−)-avicennone C,1 the avicennone C-floyocidin B hybrids 35, ent-35, 36 and ent-36 as well as the natural product (+)-floyocidin A.
Determination of logD 7.4
LogD values at pH 7.4 were determined by a standardized HPLC method derived from by Genieser et al.8 The calculation of the logD value for measured compounds is performed by comparison of the retention times with standard compounds of known distribution coefficients between 1 -octanol and water at pH 7.4. […]
8 Krass, J. D., Jastorff, B., and Genieser, H.-G. Anal. Chem. 1997, 69, 2575–2581. […]

[2] = Microsomal stability, human; type: in vitro ADME; details: 1 µM compound; for microsomal CLint at 1 µM / half-life at 1 µM: human, pooled liver microsomes, pH 7.4, human liver microsomes 0.5 mg/mL; for half-life at 1 µM: read-out: Microsomal stability t1/2, Human
Method: (§1) 2.4. Assay descriptions for the profiling of all four stereoisomers of (+)-floyocidin B and (−)-avicennone C,1 the avicennone C-floyocidin B hybrids 35, ent-35, 36 and ent-36 as well as the natural product (+)-floyocidin A. […]
(§2) Pooled liver microsomes are purchased. Microsomes are stored at –80 °C prior to use. Microsomes (final protein concentration 0.5 mg/mL), 0.1 M phosphate buffer pH 7.4, and test compound (final substrate concentration 1 µM; final DMSO concentration 0.25%) are preincubated at 37 °C prior to the addition of NADPH (final concentration 1 mM) to initiate the reaction. A minus cofactor control i ncubation is included for each compound tested where 0.1 M phosphate buffer pH 7.4 is added instead of NADPH. Two control compounds are included. All incubations are performed singularly for each test compound. Each compound is incubate d for 0, 5, 15, 30, and 45 min. The control is incubated for 45 min only. The reactions are stopped by transferring incubate into acetonitrile at the appropriat e time points, in a 1:3 ratio. The termination plates are centrifuged at 3,000 rpm for 20 min at 4 °C to precipitate the protein.
(§3) From a plot of ln peak area ratio (compound peak area/internal standard peak area) against time, the gradient of the line is determined. Subsequently, half -life and intrinsic clearance are calculated using the equations below:
(§4) Elimination rate constant (k) = (- gradient)
(§5) Intrinsic clearance (CL )(µL/min/mg protein) = V x 0.693 […]
(§6) where V = Incubation volume (µL)/Microsomal protein (mg)
(§7) Relevant control compounds are assessed, ensuring intrinsic clearance values fall within the specified limits (if available). […]

[3] = Microsomal stability, mouse; type: in vitro ADME; details: 1 µM compound; for microsomal CLint at 1 µM / half-life at 1 µM: mouse, pooled liver microsomes, pH 7.4, mouse liver microsomes 0.5 mg/mL; for microsomal CLint at 1 µM: read-out: Microsomal stability CLint, Mouse; for half-life at 1 µM: read-out: Microsomal stability t1/2, Mouse
Method: as §1, §2, §3, §4, §5, §6, §7

THP1 cells = experiment: Cytotoxicity on THP1 cells (CellTiterGlo); type: cell-based; details: for Cytotoxicity TC50 THP1: THP1 cells, 40 h
Method: (§8) Cytotoxicity on THP1 and HepG2 cells
(§9) After 4 hours of HepG2 cell line (provided by ATCC) plating at 2.500 cells /well in 384-w plates, compounds were added to the cells. After an incubation at 37 °C for 40 h, the CellTiterGlo assay (provided by Promega) was performed.
(§10) Luminescence measurement is related to the cell viability. Compound activity is determined by using the control wells with no treatment as control (100% of growth). The assay was performed identically with THP1 cells. All incubations were […]

HepG2 cells = experiment: Cytotoxicity on HepG2 cells (CellTiterGlo); type: cell-based; details: 40 h
Method: as §8, §9, §10

Caco-2 cells = experiment: Cellular permeability assay utilizing Caco2 cell line; details: 10 µM, 120 min
[4] = as above; details: human
[5] = Mycobacterium tuberculosis, 144 h, read-out: MIC
[6] = Moraxella catarrhalis, ATCC25238I, read-out: MIC
[7] = A2B in the presence of elacridar
[8] = human liver microsomes 0.5 mg/mL
[9] = mouse liver microsomes 0.5 mg/mL

Row | SMILES | MIC (M. tuberculosis H37Rv; [5]) | MIC (E. coli ATCC25922) | MIC (E. coli ATCC25922 MHC) | MIC (P. aeruginosa ATCC27853) | MIC (S. aureus ATCC25923) | MIC [1, 6] | MIC (C. albicans FH2173) | chromatographic logD (physchem) | microsomal CLint at 1 µM [2] | half-life at 1 µM [2] | microsomal CLint at 1 µM [3] | half-life at 1 µM [3] | Cytotoxicity TC50 THP1 (THP1 cells) | Cytotoxicity TC50 HepG2 (HepG2 cells) | Caco‐2 permeability recovery +Elacridar (Caco-2 cells; [7]) | Caco‐2 permeability Papp A2B (Caco-2 cells) | Caco‐2 permeability recovery A2B (Caco-2 cells) | other results
1 | CCCC=Cc1ccc2c(c1)C(=O)C1(CC=C(C)C)OC1C2O (centres unmarked) [compound 35] | 9.4 µg/mL (≈ 30.1 µM) | > 128 µg/mL | > 128 µg/mL | > 128 µg/mL | > 128 µg/mL | 64 µg/mL (≈ 205 µM) | > 128 µg/mL | 4.7 | 45.5 µL/min/mg | 30.5 min | 1040 µL/min/mg | 1.33 min | 12.9 µM | 9.39 µM | 29.6% | 135 10^−7 cm s^−1 | 76.0% | Caco‐2 permeability Papp +Elacridar (Caco-2 cells; [7]): 181 10^−7 cm s^−1
2 | CCCC=Cc1ccc2c(c1)C(=O)C1(CC=C(C)C)OC1C2O (stereo not drawn) [ent‐35] | – | – | – | – | – | – | – | – | – | – | – | – | 12.9 µM | 14.7 µM | [b] (46.1) % | 162 10^−7 cm s^−1 | 37.2% | MIC (M. tuberculosis H37Rv): 9.4 µg/mL (≈ 30.1 µM); MIC [1]: 32 µg/mL (≈ 102 µM); Log D pH 7.4 (physchem; pH 7.4): 4.72; Microsomal stability CLint, Human [2, 8]: 40.5 μL/min/mg protein; Microsomal stability t1/2, Human [2, 8]: 34.3 min; Microsomal stability CLint, Mouse [3, 9]: 561 μL/min/mg protein; Microsomal stability t1/2, Mouse [3, 9]: 2.47 min; Caco‐2 permeability recovery +Elacridar (Caco-2 cells; A2B in the presence of elacridar, listed as ent-35): 46.1%; Caco‐2 permeability recovery A2B (Caco-2 cells; listed as ent-35): 37.2%
3 | CCC/C=C/c1cc2c(cn1)[C@@H](O)[C@H]1O[C@@]1(CC=C(C)C)C2=O [compound 4, (1aR,2R,7aR)‐2‐Hydroxy‐7 a‐(3‐methylbut‐2‐en‐1‐yl)‐5‐((E)‐pent‐1‐en‐1‐yl)‐1 a,7 a‐dihydrooxireno[2,3‐g]isoquinolin‐7(2H)‐one] | 9.4 µg/mL (≈ 30 µM) | > 128 µg/mL | > 128 µg/mL | > 128 µg/mL | > 128 µg/mL | 16 µg/mL (≈ 51.1 µM) | > 128 µg/mL | 4.01 | 72.7 µL/min/mg | 19.1 min | 349 µL/min/mg | 3.97 min | 5.84 µM | 4.5 µM | 14.2% | – | 10.1% | Papp at 120 min, 10 µM ([4]; Caco-2, Caco‐2 permeability Papp +Elacridar, A2B in the presence of elacridar): 5.62 ×10⁻⁶ cm/s; Papp A→B at 120 min, 10 µM ([4]; Caco-2, Caco‐2 permeability Papp A2B, A2B): 4.11 ×10⁻⁶ cm/s
4 | CCC/C=C/c1ccc2c(c1)C(=O)[C@]1(CC=C(C)C)O[C@@H]1[C@H]2O [compound 36] | 9.4 µg/mL (≈ 30.1 µM) | > 128 µg/mL | > 128 µg/mL | > 128 µg/mL | > 128 µg/mL | 8 µg/mL (≈ 25.6 µM) | > 128 µg/mL | 4.73 | 39.7 µL/min/mg | 34.9 min | 259 µL/min/mg | 5.36 min | 15.1 µM | 16.1 µM | – | – | – | Cytotoxicity relative to 4 (THP1 cells; TC50 in THP‐1 and HepG2 compared with 4): three times less cytotoxic than 4
